# Test results published in US20240309360A1, “TRANS-ACTIVATORS AND METHODS AND USE THEREOF” (THE GOVERNING COUNCIL OF THE UNIVERSITY OF TORONTO, priority 2021, published 2024).
# Test system: EGFP reporter (7×TetO array, basal CMV promoter) in HEK293T reporter cell line
# Assay: TAD-seq pooled activation screen of 60-aa fragments fused to PYL1
# Assay type: cell-based, human
# Conditions: for Hit high GFP: high GFP population (top 1%); for logFC high GFP / logFC medium GFP: log 2 fold change of counts, 100 μM ABA 48 hours; for logFC high GFP: sorted high GFP cells (top 1%) vs unsorted cells; for logFC medium GFP: sorted medium GFP cells (top 2-5%) vs unsorted cells; for Hit medium GFP: medium GFP population (top 2-5%); call rule not given here
# Excerpt: A fragment library of 75 activators identified in our screen was generated, using 60 amino-acid tiles every 20 aa such that every amino acid was represented by three different fragments (FIG. 3A). The pooled fragment library was fused to PYL1 and recruited to the same GFP reporter used in the original ORFeome screen (FIG. 3A). […] The GFP positive population was sorted into two independent replicates, and fragments in each population were quantified by sequencing. However, in contrast to the ORFeome screen, both high GFP cells (top 1%) and medium GFP cells (top 2-5%) were sorted to potentially identify transactivators of different strength.
# Activation domain tiling library generation. A tiling library was generated from 75 proteins identified as activators in the ORFeome screen. Oligonucleotides containing a 5′ adapter […] (SEQ ID NO: 23) and a 3′ adapter […] (SEQ ID NO: 24) to generate a 5′ adapter ([…]) (SEQ ID NO: 11) and a 3′ adapter ([…]) (SEQ ID NO: 12) were synthesized as pooled libraries (Twist Biosciences). 6×50 μl PCR reactions were set up using NEBNext Ultra II Q5 master mix (New England Biolabs) with 5 nM oligos as template. PCR conditions were optimized to find the lowest cycle with a clean visible product at the expected 300 bp length. The thermocycling condition was an initial 30 s at 98° C., then 2 cycles of 98° C. for 10 s, 63° C. for 20 s, and 72° C. for 15 s, followed by 10 more cycles of 98° C. for 10 s and 72° C. for 30 s with a final extension at 72° C. for 5 min. Primers were designed to have Gateway compatible flanking sequences. The resulting libraries were gel extracted by QIAgen gel extraction kit after loading on a 2% TAE gel for 2 hrs at 60V and subsequently cloned into pDONR221 using 20 separate BP reactions in total of 5 μl reactions. The entry plasmid pool was transformed after an overnight reaction into DHSalpha competent E. coli and incubated overnight on LB agar plates containing kanamycin ([…]). Colonies were collected and plasmid DNA purified. 20 LR reactions were then set up as described in the previous section. Each reaction was transformed into NEB 10-beta chemically competent E. coli and grown on LB agar plates containing carbenicillin ([…]) overnight at 30° C. Colonies were counted to ensure >200-fold coverage at each step of cloning, pooled and maxiprepped.
# Pooled activation screens. ORFeome and transactivation tiling libraries tagged at the C-terminus with PYL1 were packaged into lentiviral particles. A clonal EGFP reporter cell line stably co-expressing ABI-dCas9 and a gRNA targeting the promoter were transduced at low multiplicity of infection (MOI) with approximately 30% cell survival after puromycin (1 μg/mL) selection. Untransduced cells under the same condition were fully eliminated. Sufficient cells were transduced to maintain >500 fold coverage of the libraries. Recruitment was induced by treating cells with 100 μM abscisic acid (ABA, Sigma) for 48 hours. In parallel, a control batch of cells were treated with equal total volume of DMSO. Cells were then washed in PBS, treated with dissociation buffer (1 mM EDTA, 10 mM KCl, 150 mM NaCl, 5 mM sodium bicarbonate, 0.1% glucose) and resuspended in flow buffer (5 mM EDTA, 25 mM HEPES pH 7, 1% BSA, PBS). High GFP population for each library, top 1% for ORFeome and two bins of top 1% and the next 4% for the TAD screen, were sorted and their genomic DNA directly extracted using QIAmp DNA Blood Mini Kit (QIAGEN).
# TAD sequencing. Performed nested PCR on the purified genomic DNA using primers targeting T7 promoter and PYL1 of the backbone vector in the first step creating a ˜470 bp product. Products of the first reaction were then pooled and amplified for an additional 10 steps using primers targeting outside the Gateway sites creating a ˜300 bp product. Libraries were quantified on Qubit dsDNA Broad Range kit and paired-end sequenced on an Illumina MIseq with a custom PAGE-purified R1 sequencing primer. […]
Substance,Hit high GFP,logFC high GFP,logFC medium GFP,Hit medium GFP
ATF6-1: 60-aa TAD-seq fragment of ATF6 (MGEPAGVAGTMESPFSPGLFHRLDEDWDSALFAELGYFTDTDELQLEAANETYENNFDNL; listed as Homo sapiens),hit,3.145,1.563,hit
ATF6B-1: 60-aa TAD-seq fragment of ATF6B (MAELMLLSEIADPTRFFTDNLLSPEDWGLQNSTLYSGLDEVAEEQTQLFRCPEQDVPFDG; listed as Homo sapiens),hit,1.917,0.9931,hit
ATMIN-24: 60-aa TAD-seq fragment of ATMIN (NPGPDTQLPSGPAQNPGIDFDIEEFFSASNIQTQTEESELSTMTTEPVLESLDIETQTDF; listed as Homo sapiens),,1.233,0.988,hit
ATMIN-32: 60-aa TAD-seq fragment of ATMIN (ETQTMSSGFETLGSLFFTSNETQTAMDDFLLADLAWNTMESQFSSVETQTSAEPHTVSNF; listed as Homo sapiens),,0.6355,0.8198,hit
ATOH1-1: 60-aa TAD-seq fragment of ATOH1 (MSRLLHAEEWAEVKELGDHHRQPQPHHLPQPPPPPQPPATLQAREHPVYPPELSLLDSTD; listed as Homo sapiens),,0.7218,0.9194,hit
ATXN7L3-2: 60-aa TAD-seq fragment of ATXN7L3 (QEIYADLVEDSCLGFCFEVHRAVKCGYFFLDDTDPDSMKDFEIVDQPGLDIFGQVFNQWK; listed as Homo sapiens),,0.7654,0.8911,hit
ATXN7L3-4: 60-aa TAD-seq fragment of ATXN7L3 (FEIVDQPGLDIFGQVFNQWKSKECVCPNCSRSIAASRFAPHLEKCLGMGRNSSRIANRRI; listed as Homo sapiens),,0.7641,0.7514,hit
BRD8-23: 60-aa TAD-seq fragment of BRD8 (KEECFRSGVAEAPVGSKAPSIDGKEELDLAEKMDIAVSYTGEELDFETVGDIIAIIEDKV; listed as Homo sapiens),,0.5884,0.5915,hit
BRD8-24: 60-aa TAD-seq fragment of BRD8 (IDGKEELDLAEKMDIAVSYTGEELDFETVGDIIAIIEDKVDDHPEVLDVAAVEAALSFCE; listed as Homo sapiens),hit,1.593,1.566,hit
BTBD18-24: 60-aa TAD-seq fragment of BTBD18 (IDCREPYAFDTALLEQPCEAEEYRITSAAATSELEEILDFMLCGSDIEPPIGSLESPGAE; listed as Homo sapiens),,1.246,0.8561,hit
BTBD18-25: 60-aa TAD-seq fragment of BTBD18 (EEYRITSAAATSELEEILDFMLCGSDIEPPIGSLESPGAEGCRTPTYHLTETGKNWIEGE; listed as Homo sapiens),,1.471,1.413,hit
C3orf62-11: 60-aa TAD-seq fragment of C3orf62 (NHMCGHCQDSPFKEEAWALLMDKSPQKATDADPGSLKQAFDDHNIVETVLDLEEDYNVMT; listed as Homo sapiens) [Fragment C3orf62-11],hit,6.023,−0.5261,
C11orf74-1: 60-aa TAD-seq fragment of C11orf74 (MSAHMSGLEIMDEDQLIKDVLDKFLNCHEQTYDEEFLNTFTHLSQDLLLLPGEVEQDVST; listed as Homo sapiens) [Fragment C11orf74-1],hit,2.356,1.551,hit
CITED1-7: 60-aa TAD-seq fragment of CITED1 (LQNWDFGAQAGGAESLSPSAGAQSPAIIDSDPVDEEVLMSLVVELGLDRANELPELWLGQ; listed as Homo sapiens),hit,4.314,1.597,hit
CITED2-11: 60-aa TAD-seq fragment of CITED2 (MPASVAHVPAAMLPPNVIDTDFIDEEVLMSLVIEMGLDRIKELPELWLGQNEFDFMTDFV; listed as Homo sapiens),hit,6.165,0.9491,
CSRNP1-28: 60-aa TAD-seq fragment of CSRNP1 (DNIEAPHFPLPGLSPPGDASSCFLESLMGFSEPAAEALDPFIDSQFEDTVPASLMEPVPV; listed as Homo sapiens),,0.5029,0.6955,hit
DDIT3-1: 60-aa TAD-seq fragment of DDIT3 (MAAESLPFSFGTLSSWELEAWYEDLQEVLSSDENGGTYVSPPGNEEEESKIFTTLDPASL; listed as Homo sapiens),hit,2.373,1.502,hit
DDIT3-2: 60-aa TAD-seq fragment of DDIT3 (WYEDLQEVLSSDENGGTYVSPPGNEEEESKIFTTLDPASLAWLTEEEPEPAEVTSTSQSP; listed as Homo sapiens),,1.138,1.28,hit
ELF4-1: 60-aa TAD-seq fragment of ELF4 (MAITLQPSDLIFEFASNGMDDDIHQLEDPSVFPAVIVEQVPYPDLLHLYSGLELDDVHNG; listed as Homo sapiens),,0.6626,0.7287,hit
ELF4-2: 60-aa TAD-seq fragment of ELF4 (DDIHQLEDPSVFPAVIVEQVPYPDLLHLYSGLELDDVHNGIITDGTLCMTQDQILEGSFL; listed as Homo sapiens),hit,1.467,1.364,hit
FAM22F-19: 60-aa TAD-seq fragment of FAM22F (PRPQRPAETNAHLPPPRPQRPAETKVPEEIPPEVVQEYVDIMEELLGSHPGDTGEPEGQR; listed as Homo sapiens),,0.9998,0.9884,hit
FAM22F-20: 60-aa TAD-seq fragment of FAM22F (PAETKVPEEIPPEVVQEYVDIMEELLGSHPGDTGEPEGQREKGKVEQPQEEDGITSDPGL; listed as Homo sapiens),hit,3.214,2.101,hit
FAM22F-22: 60-aa TAD-seq fragment of FAM22F (EKGKVEQPQEEDGITSDPGLLSYIDKLCSQEDFVTKVEAVIHPRFLEELLSPDPQMDFLA; listed as Homo sapiens),hit,4.76,2.325,hit
FAM22F-23: 60-aa TAD-seq fragment of FAM22F (LSYIDKLCSQEDFVTKVEAVIHPRFLEELLSPDPQMDFLALSQELEQEEGLTLAQLVEKR; listed as Homo sapiens),hit,5.822,0.2737,
